Results: patent US5962633A, “Cytotoxic T-lymphocyte antigen as cysteine protease inhibitor” (Bayer Corporation, priority 1995, dated 1999)
Read-outs that look alike come from different tables or passages of the source. No end group written: not given here.

Experiments:
[1] = test system: cartilage proteoglycan degradation; conditions: 100 μM; cited from earlier work
human liver Cathepsin L = target: T1, human liver Cathepsin L (Homo sapiens, UniProt P07711); assay: Cathepsin L fluorescence assay (hydrolysis of Z-Phe-Arg-AMC); assay type: biochemical
T1 construct: from tissue; host or cells: human liver
T1 sequence (P07711 114-288 limits assumed): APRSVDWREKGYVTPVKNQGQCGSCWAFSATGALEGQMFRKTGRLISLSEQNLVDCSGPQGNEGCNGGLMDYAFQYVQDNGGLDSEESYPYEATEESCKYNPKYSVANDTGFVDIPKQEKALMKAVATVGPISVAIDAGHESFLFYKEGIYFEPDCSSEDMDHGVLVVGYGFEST
T1 sequence (P07711 292-333 limits assumed): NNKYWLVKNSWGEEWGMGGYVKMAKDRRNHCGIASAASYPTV
Experimental: A fluorescence based assay was set up according to Barrett and Kirschke (Barrett et al., 1981, Meth. in Enz., 80:535).
The enzyme sample was diluted with 750 μl of assay buffer (340 mM sodium acetate--60 mM acetic acid--4 mM disodium EDTA, pH 5.5 and 8 mM DTT added fresh) and various concentrations of CTAL-2β (a final concentration of 5-50 nM), was added. After an incubation period of 6 minutes at room temperature, 1500 μl of 0.1% Brij 35 was added. The substrate Z-Phe-Arg-AMC (AMC is aminomethyl-coumarin) was added at a final concentration of either 2.5 μM or 5.0 μM.
The fluoresence of the free aminomethyl-coumarin was measured in an SLM 4800S fluorimeter by excitation at 370 nm and emission at 432 nm over a six minute time period. […] In order to calculate the velocities, a linear least squares analysis was performed over the initial linear part of the data.
The Ki value is equal to the negative of the X-axis intercept that gives the same velocity at the different substrate concentrations if there is competitive inhibition (Dixon et al., 1979, Enzymes, 3rd Ed., Academic Press, New York, page, 365).
These peptides were tested for inhibition of Cathepsin L activity using the assays described previously. Briefly, Cathepsin L (19 pM final as determined by active site titration using E-64, Barret & Kirschke, 1991) was added to 750 μL of assay buffer consisting of […] sodium acetate--60 mM acetic acid (pH 5.5), 4 mM disodium EDTA, and 8 mM DTT. Peptides were added at concentrations ranging from on to 35 μM. […] The fluorescence of the free aminomethylcoumarin was measured in an SLM 4800s fluorimeter at excitation of 370 nm and an emission at 432 nm over a 6 minute time period. Fluorence was converted to μM AMC released by using a standard curve generated by plotting μM AMC vs. fluorescence, and plotted vs. time. […] The i.c. 50 values were determined from Dixon plots of the form V-/V+ (velocity without peptide/velocity with peptide) vs. peptide concentration. […]

[2] = test system: proteoglycan release from articular cartilage explants; assay: Micro organ culture assay (MOCA): IL-1 induced proteoglycan release from articular cartilage explants; assay type: cell-based, calf; conditions: p117 10 μM (best concentration); IL-1 alpha 50 U/ml
Excerpt: The assay system used for testing the peptides for inhibitory activity of proteolglycan release is a micro organ culture assay (MOCA). Papain; cetyl pyridinium chloride and chondroitin sulfate type C was purchased from Sigma Chemical Co. (St. Louis, MO). Interleukin 1 alpha was purchased from Collaborative Research. ABCase, chrondroitinase, ABC lyase, and keratanase were obtained from ICL Na^35 SO4 was purchased from NEN.
Articular cartilage explants from calk knee joints were maintained in culture in DMEM medium containing 20 μCi/ml Na ^35 SO4 for 48 hours for the incorporation of label into newly synthesized proteoglycan (PG). The radiolabelled medium was then removed, the radiolabelled explants washed 3×30 ml cold DMEM and placed into a 96 well plate with or without IL-1 (Interleukin-1 alpha, 50 U/ml) and various concentrations of p117. The explants were incubated first for 24 hours in the presence of IL-1 in order to ensure initiation of IL-1 indicated auto-catalysis prior to the addition of various metalloprotease inhibitors for an additional 72 hours.
The newly synthesized radiolabelled proteoglycans released during the cultivation period were subjected to enzymatic digestion with papain. […] The filter was dried and counted after addition of 10 mls of scintillation cocktail (scintillant).

papain = papain (Carica papaya, UniProt P00784); conditions: read-out: i.c. 50 in Papain Assay; substrate Z-Phe-Arg-AMC; papain 33.3 ng/ml; Dixon plot V-/V+ vs. I
Chain of papain (P00784 134-345): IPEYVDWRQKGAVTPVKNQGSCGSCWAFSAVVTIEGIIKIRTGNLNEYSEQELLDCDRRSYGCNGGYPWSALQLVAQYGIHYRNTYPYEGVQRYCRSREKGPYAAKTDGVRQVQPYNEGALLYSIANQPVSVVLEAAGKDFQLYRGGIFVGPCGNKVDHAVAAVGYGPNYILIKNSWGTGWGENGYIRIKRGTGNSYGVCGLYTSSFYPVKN
Experimental: The fluorescence was measured and the i.c. 50 was determined.

CC(C)CCNC(=O)[C@H](CC(C)C)NC(=O)[C@H]1O[C@@H]1C(=O)O [Ep475]
inhibition of IL-1 stimulated cartilage proteoglycan degradation [1]: did not work

ENKKKIEAHNADYERGKTSFC [P089]
inhibition of Cathepsin L at 10 uM peptide (human liver Cathepsin L; peptide 10 uM, printed in the i.c. 50 column): 25%

YSLDEERHRRLMWEENKKKIEAH [p117]
% inhibition of proteoglycan release [2]: about 30%

CRGEMAPDLPEYEDLG [p092]
IC50 (human liver Cathepsin L; Cathepsin L 19 pM, 5.0 μM Z-Phe-Arg-NMec (AMC), 6 minute incubation at 25° C., read-out: i.c. 50 (synthetic peptides, Cathepsin L)): 41 µM

CC(C)C[C@H](NC(=O)[C@H]1O[C@@H]1C(=O)O)C(=O)NCCCCN=C(N)N (relative stereo) [E64, trans-epoxysuccinyl L-leucylamido-(4-guanido)butane]
inhibition of IL-1 stimulated cartilage proteoglycan degradation [1]: did not work

B1: monomeric CTLA-2β: monomeric form of recombinant CTLA-2β, mass 12.8 kd, reverse-phase purified (protein, UniProt P12400 1-113, looked up)
Protein CTLA-2-beta: MMSAAPSPDPSLDNEWKEWKTTFAKAYSLDEERHRRLMWEENKKKIEAHNADYERGKTSFYMGLNQFSDLTPEEFRTNCCGSSMCRGEMAPDLPEYEDLGKNSYLTPGRAQPE
IC50 (human liver Cathepsin L; reverse-phase purified CTLA-2β, Dixon plot V-/V+ vs. I, substrate Z-Phe-Arg-AMC, read-out: i.c. 50 in Cathepsin L Assay): 0.0182 µM | IC50 (papain): 14 nM
